Experiments:
eIF2α = assay: Thermophoresis affinity measurement, binding to labelled P-eIF2α; parameters: species or system human
Experimental: Thermophoresis experiments were performed using a Monolith NT.115 instrument (NanoTemper Technologies). PP1c and P-eIF2α proteins were labeled using the Monolith NT Protein labelling Kit Red-NHS and stored for no longer than a month at −80° C. For thermophoresis, all protein dilutions were carried out in MST buffer (50 mM HEPES (pH 7.4), 100 mM NaCl, 0.1% Tween20, 2 mM MnCl2). Labelled proteins (100 nM) were mixed with equal volumes of serial dilutions of the unlabelled binding partner. In holophosphatase binding experiments, labelled P-eIF2 was diluted to 100 nM in MST buffer containing 10 μM regulatory subunit and then mixed as above with titrations of unlabelled PP1c. All experiments were carried out in enhanced grade capillaries, using 100% LED power and 100% IR-laser (on for 25 seconds (″)) at 20° C. NanoTemper Analysis 1.2.101 software was used to fit the data with a nonlinear solution of the law of mass action and KD values were determined. Each measurement was repeated in three independent experiments and KD values were averaged. Standard error of the mean (SEM) values are shown.

PP1c = biological target: T1, PP1c (Homo sapiens, UniProt P62136); assay: Dephosphorylation of P-eIF2α by increasing amounts of PP1c alone; type: biochemical; settings: compound 100 μM, 30° C., 16 h
T1 construct: The cDNA encoding amino acids 7-330 of human PP1cα; made in house; host or cells: E. coli BL21/pGro7 (PP1c); E. coli BL21 pLysS (eIF2α)
Experimental: (§1) PP1c was diluted to the appropriate concentration (as indicated in the figure legends) in dephosphorylation buffer immediately prior to use. Dephosphorylation reactions were carried out by pre-incubating diluted PP1c in the presence or absence of regulatory subunits (either […]), and/or compounds (all at 100 μM, except for Salubrinal which was used at 30 μM), for 15′ at RT. All compounds were diluted in DMSO, and DMSO vehicle was used in all control experiments.
(§2) The reaction was initiated by the addition of 1 μM P-eIF2α or ^33P Phosphorylase a substrates and then incubated at 30° C. for 16 h with shaking at 350 rpm. Reactions were stopped by addition of 4× Laemmli sample buffer. eIF2α samples were analyzed by immunoblotting or Phos-tag gels. […] Samples in FIG. 8 and FIG. 16 were run on a 15% SuperSep Phos-tag acrylamide gel (Alpha Laboratories) and visualized by staining with InstantBlue Protein Stain.

R15A [1] = biological target: T2, R15A (Homo sapiens, UniProt O75807); assay: Light scattering to monitor aggregation of R15A; settings: 5 μM R15A, 10 min, 20° C.
T2 construct: PPP1R15A amino acids 325-636 (R15A); His6 (C); made in house; host or cells: E. coli BL21 pLysS
Experimental: Samples were incubated for 10 min at RT. […] Therefore, light scattering was measured at 380 nm emission, 380 nm absorption to monitor the presence of aggregates. For each sample, 100 data points were collected over a period of 10 min, at 20° C., with constant stirring.

R15B-PP1c = biological target: T3, R15B-PP1c (Homo sapiens, UniProt Q5SWA1); assay: In vitro dephosphorylation of P-eIF2α by recombinant R15B-PP1c holophosphatase (10 nM PP1c); type: biochemical; settings: PP1c 10 nM, 1 μM P-eIF2α, compounds 100 μM, 30° C., 16 h
T3 construct: PPP1R15B amino acids 340-698 (R15B); His6 (C); made in house; host or cells: E. coli BL21 pLysS (R15B, eIF2α); E. coli BL21/pGro7 (PP1c)
Experimental: as §1
The reaction was initiated by the addition of 1 μM P-eIF2α or ^33P Phosphorylase a substrates and then incubated at 30° C. for 16 h with shaking at 350 rpm. Reactions were stopped by addition of 4× Laemmli sample buffer. eIF2α samples were analyzed by immunoblotting or Phos-tag gels. P-eIF2α dephosphorylation was analysed by immunoblotting using anti-Phospho-eIF2α (SerS1) (#9721) (Cell Signaling) and anti-eIF2α (ab26197) (AbCam) antibodies. Samples in FIG. 8 and FIG. 16 were run on a 15% SuperSep Phos-tag acrylamide gel (Alpha Laboratories) and visualized by staining with InstantBlue Protein Stain.

R15A [2] = biological target: T2, R15A; assay: Limited trypsin proteolysis of R15A (conformational change); settings: 100 μM compound, 0.5 μM R15A, 2.5 nM trypsin, 30 min to 3 h, 22° C.
Experimental: (§3) Reactions were allowed to proceed at 22° C. with shaking at 350 rpm. At time points 30 min, 1 h, 2 h or 3 h, 30 μl of sample was removed from the mix and digestion was stopped by addition of 10 μl of 16% SDS Laemmli sample buffer. Samples were run on 4-12% NuPAGE Bis-Tris gels (Life Technologies). Proteins were visualised by staining with InstantBlue Coomassie Protein Stain (Expedeon) protein stain.
(§4) Purified R15A and R15B were diluted to 3 μM in PBS, and incubated for 15′ at RT with 100 μM Raphin1, or DMSO vehicle. Reactions were initiated by addition of 5 nM of trypsin from bovine pancreas (Sigma), made up in PBS, and allowed to proceed for 5′ at 22° C., with shaking at 350 rpm. Digestion was stopped by addition of 4× Laemmli sample buffer and samples were run on 4-12% NuPAGE Bis-Tris gels (Life Technologies). Proteins were visualised by staining with InstantBlue Protein Stain.

HeLa cells = assay: Cytoprotection of HeLa cells from Tunicamycin (ER) stress; type: cell-based; settings: 250 ng/ml Tunicamycin, 72 h
Experimental: HeLa cells (40,000 cells/ml) were plated in a 96-well plate and treated with different concentrations of compound, as indicated, or DMSO vehicle in the presence of 250 ng/ml Tunicamycin for 72 h. To monitor cell death, 1/2000 dilution of the CellTox green dye (Promega) was added to the media. The growth of the cells was monitored over time and pictures taken every 2 h with the IncuCyte ZOOM system and analysed by the IncuCyte ZOOM software (Essen BioScience). To compare different compounds and their cytoprotective effect, a growth ratio for each time point was calculated:
Growth ratio=(Phase confluency (%) at X hours)/(Phase confluency (%) at 0 hours)
The end point of the assay (72 h) was chosen for generating the graphs.

R15B = biological target: T4, R15B (Homo sapiens, UniProt Q5SWA1); assay: Limited trypsin proteolysis of R15B (conformational change); settings: 100 μM compound, 0.5 μM R15B, 2.5 nM trypsin, 30 min to 3 h, 22° C.
T4 construct: PPP1R15B amino acids 340-698 (R15B); His6 (C); made in house; host or cells: E. coli BL21 pLysS
T4 sequence (Q5SWA1 340-698): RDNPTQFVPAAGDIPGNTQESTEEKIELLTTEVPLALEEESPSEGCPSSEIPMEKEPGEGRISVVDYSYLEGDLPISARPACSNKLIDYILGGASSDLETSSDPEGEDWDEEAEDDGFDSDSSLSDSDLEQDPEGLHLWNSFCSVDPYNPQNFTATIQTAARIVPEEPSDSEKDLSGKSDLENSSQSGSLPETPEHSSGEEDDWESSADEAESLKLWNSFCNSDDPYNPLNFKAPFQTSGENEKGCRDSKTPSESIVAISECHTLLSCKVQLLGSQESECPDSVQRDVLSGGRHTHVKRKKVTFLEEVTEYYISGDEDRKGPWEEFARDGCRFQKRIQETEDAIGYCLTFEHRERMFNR
Experimental: as §3, §4

R15A-PP1c = biological target: T5, R15A-PP1c (Homo sapiens, UniProt O75807); assay: In vitro dephosphorylation of P-eIF2α by recombinant R15A-PP1c holophosphatase (10 nM PP1c); type: biochemical; settings: PP1c 10 nM, 1 μM P-eIF2α, compounds 100 μM, 30° C., 16 h
T5 construct: PPP1R15A amino acids 325-636 (R15A); His6 (C); made in house; host or cells: E. coli BL21 pLysS (R15A, eIF2α); E. coli BL21/pGro7 (PP1c)
Experimental: as §1, §2

T2 sequence (O75807 325-636, stated change not applied): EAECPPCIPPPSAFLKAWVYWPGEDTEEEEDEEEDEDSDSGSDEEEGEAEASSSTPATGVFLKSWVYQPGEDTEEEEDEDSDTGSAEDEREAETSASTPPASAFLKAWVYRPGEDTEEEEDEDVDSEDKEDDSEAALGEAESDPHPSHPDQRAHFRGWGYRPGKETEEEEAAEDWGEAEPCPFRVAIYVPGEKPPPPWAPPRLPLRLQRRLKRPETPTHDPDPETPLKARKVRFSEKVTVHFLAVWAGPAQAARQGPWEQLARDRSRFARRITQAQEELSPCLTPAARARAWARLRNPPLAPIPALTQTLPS
T3 sequence (P62136 7-330 partner limits assumed, one chain of several): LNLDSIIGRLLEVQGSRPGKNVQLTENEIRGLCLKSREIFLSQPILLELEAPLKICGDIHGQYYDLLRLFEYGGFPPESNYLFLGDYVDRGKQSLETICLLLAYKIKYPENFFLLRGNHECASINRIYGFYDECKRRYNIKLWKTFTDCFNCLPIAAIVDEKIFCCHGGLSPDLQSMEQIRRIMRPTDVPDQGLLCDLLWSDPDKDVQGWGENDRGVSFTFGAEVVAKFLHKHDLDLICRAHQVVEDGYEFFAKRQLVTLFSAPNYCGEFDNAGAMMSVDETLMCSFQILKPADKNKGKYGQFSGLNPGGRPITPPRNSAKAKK
T1 sequence (P62136 7-330): as the sequence (P62136 7-330 partner limits assumed, one chain of several) above
T5 sequence (O75807 325-636, stated change not applied): as the sequence (O75807 325-636, stated change not applied) above
T5 sequence (P62136 7-330 partner): as the sequence (P62136 7-330 partner limits assumed, one chain of several) above

Work on “PP1c^D95A: catalytically inactive D95A mutant of human PP1cα (amino acids 7-330)” yielded a Kd (eIF2α; 20° C.) of roughly 650 nM.

“R15B-PP1c^D95A: holophosphatase complex of R15B (PPP1R15B 340-698) with PP1c^D95A” was tested, and the “affinity for eIF2α relative to isolated PP1c^D95A” value (eIF2α; 10 μM regulatory subunit) was 3.0 times higher.

With `O=C(/C=C/c1ccccc1)NC(NC(=S)Nc1cccc2cccnc12)C(Cl)(Cl)Cl` (stereo not shown) [Salubrinal] the “inhibition of PP1c alone” value (PP1c) was “inhibited PP1c” and the “aggregation of R15A (light scattering at 380 nm)” value (R15A [1]; 50 μM compound) was “induced robust aggregation”.

For `N=C(N)N/N=C/c1ncccc1Cl` [C3, (E)-2-((3-chloropyridin-2-yl)methylene)hydrazine-1-carboximidamide], the “inhibition of R15B-PP1c eIF2α holophosphatase” value (R15B-PP1c) was “did not inhibit R15A-PP1 or R15B-PP1”, the “sensitivity of R15A to trypsin proteolysis” value (R15A [2]) was “did not alter the protease sensitivity” and the “aggregation of R15A (light scattering at 380 nm)” value (R15A [1]; 1 mM compound) was “No aggregation”. For the same molecule, the “cytoprotection from ER stress” value (HeLa cells) was “inactive”, the “sensitivity of R15B to trypsin proteolysis” value (R15B) was “did not alter the protease sensitivity” and the “inhibition of R15A-PP1c eIF2α holophosphatase” value (R15A-PP1c) was “did not inhibit R15A-PP1 or R15B-PP1”.
